According to patent US20230167073A1 (Teijin Pharma Limited, priority 2020, published 2023):

Biological target: T1, Human TRPC6 (Homo sapiens, UniProt Q9Y210)
T1 construct: expressed in transfected cells
T1 sequence (Q9Y210 1-931): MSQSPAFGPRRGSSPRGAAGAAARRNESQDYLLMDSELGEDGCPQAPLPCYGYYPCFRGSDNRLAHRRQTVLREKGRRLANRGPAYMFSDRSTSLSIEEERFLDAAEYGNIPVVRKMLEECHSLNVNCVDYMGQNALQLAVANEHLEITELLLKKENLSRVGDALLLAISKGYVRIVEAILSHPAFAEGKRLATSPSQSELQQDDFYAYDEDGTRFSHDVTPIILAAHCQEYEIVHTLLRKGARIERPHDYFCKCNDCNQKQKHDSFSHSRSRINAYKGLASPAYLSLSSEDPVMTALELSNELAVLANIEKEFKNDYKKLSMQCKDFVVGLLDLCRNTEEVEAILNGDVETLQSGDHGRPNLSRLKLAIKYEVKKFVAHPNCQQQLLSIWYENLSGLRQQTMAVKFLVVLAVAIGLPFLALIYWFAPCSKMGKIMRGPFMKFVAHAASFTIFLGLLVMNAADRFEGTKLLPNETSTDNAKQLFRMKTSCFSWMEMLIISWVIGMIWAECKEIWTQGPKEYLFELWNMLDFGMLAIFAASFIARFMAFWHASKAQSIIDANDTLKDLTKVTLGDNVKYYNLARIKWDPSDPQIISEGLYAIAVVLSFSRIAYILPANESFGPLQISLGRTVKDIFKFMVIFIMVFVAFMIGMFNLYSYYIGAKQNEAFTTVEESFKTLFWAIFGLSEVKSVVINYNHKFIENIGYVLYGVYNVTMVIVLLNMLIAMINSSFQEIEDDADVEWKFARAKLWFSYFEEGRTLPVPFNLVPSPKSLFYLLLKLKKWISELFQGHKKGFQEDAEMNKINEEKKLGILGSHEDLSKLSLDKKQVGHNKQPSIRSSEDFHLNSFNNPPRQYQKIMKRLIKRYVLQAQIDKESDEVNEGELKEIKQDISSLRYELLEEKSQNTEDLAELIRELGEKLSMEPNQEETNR
Test: Evaluation of TRPC6 channel inhibitory activity (1), FLIPR Calcium 5 Assay Kit, OAG stimulation (Compound Nos. 1-1293)
Format: cell-based
Details: Human TRPC6 stably-expressing cells, OAG 30 μM, FLIPR Calcium 5 Assay Kit; read-out: Inhibitory activity (pIC50 class) (converted)
Procedure, shortened: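 Stable human TRPC6 line; fluorescent Ca2+ dye loading, then 20 min compound exposure before 30 μM OAG trigger. Peak-minus-baseline signal converted to % inhibition against untreated and unstimulated wells; potency given as pIC50 band.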

IC50 [nM]	SMILES
< 10	CCN(CC)c1cc(C(=O)c2cc(C#N)ccc2-c2ncc(CN)cn2)n(C)n1 [compound 1061, 4-[5-(aminomethyl)pyrimidin-2-yl]-3-[5-(diethylamino)-2-methylpyrazole-3-carbonyl]benzonitrile]
< 10	Cn1nc(N2CCCCC2)cc1C(=O)c1cc(C#N)ccc1-c1ncc(CCN)cn1 [compound 1062, 4-[5-(2-aminoethyl)pyrimidin-2-yl]-3-(2-methyl-5-piperidin-1-ylpyrazole-3-carbonyl)benzonitrile]
< 10	Cn1nc(N2CCCCC2)cc1C(=O)c1cc(C#N)ccc1-c1ncc(CN)cn1 [compound 1063, 4-[5-(aminomethyl)pyrimidin-2-yl]-3-(2-methyl-5-piperidin-1-ylpyrazole-3-carbonyl)benzonitrile]
< 10	Cc1nc(N2CCOCC2)sc1C(=O)c1cc(C#N)ccc1-c1ncc(CCN)cn1 [compound 1065, 4-[5-(2-aminoethyl)pyrimidin-2-yl]-3-(4-methyl-2-morpholin-4-yl-1,3-thiazole-5-carbonyl)benzonitrile]
< 10	Cc1nc(N2CCOCC2)sc1C(=O)c1cc(C#N)ccc1-c1ccc(CN)cn1 [compound 1066, 4-[5-(aminomethyl)pyridin-2-yl]-3-(4-methyl-2-morpholin-4-yl-1,3-thiazole-5-carbonyl)benzonitrile]
> 1000	Cc1sc(N2CCOCC2)nc1C(=O)c1cc(C#N)ccc1-c1ccc(CN)cn1 [compound 1067, 4-[5-(aminomethyl)pyridin-2-yl]-3-(5-methyl-2-morpholin-4-yl-1,3-thiazole-4-carbonyl)benzonitrile]
10 to 1000	Cc1sc(N2CCOCC2)nc1C(=O)c1cc(C#N)ccc1-c1ccc(CCN)cn1 [compound 1068, 4-[5-(2-aminoethyl)pyridin-2-yl]-3-(5-methyl-2-morpholin-4-yl-1,3-thiazole-4-carbonyl)benzonitrile]
> 1000	Cc1sc(N2CCOCC2)nc1C(=O)c1cc(C#N)ccc1-c1ncc(CN)cn1 [compound 1069, 4-[5-(aminomethyl)pyrimidin-2-yl]-3-(5-methyl-2-morpholin-4-yl-1,3-thiazole-4-carbonyl)benzonitrile]
> 1000	Cc1sc(N2CCOCC2)nc1C(=O)c1cc(C#N)ccc1-c1ncc(CCN)cn1 [compound 1070, 4-[5-(2-aminoethyl)pyrimidin-2-yl]-3-(5-methyl-2-morpholin-4-yl-1,3-thiazole-4-carbonyl)benzonitrile]
< 10	Cn1nc(N2CCCC2)cc1C(=O)c1cc(C#N)ccc1-c1ncc(CCN)cn1 [compound 1071, 4-[5-(2-aminoethyl)pyrimidin-2-yl]-3-(2-methyl-5-pyrrolidin-1-ylpyrazole-3-carbonyl)benzonitrile]
< 10	Cn1nc(N2CCCC2)cc1C(=O)c1cc(C#N)ccc1-c1ncc(CN)cn1 [compound 1072, 4-[5-(aminomethyl)pyrimidin-2-yl]-3-(2-methyl-5-pyrrolidin-1-ylpyrazole-3-carbonyl)benzonitrile]
< 10	CCN(CC(F)F)c1cc(C(=O)c2cc(C#N)ccc2-c2ncc(CCN)cn2)n(C)n1 [compound 1073, 4-[5-(2-aminoethyl)pyrimidin-2-yl]-3-[5-[2,2-difluoroethyl(ethyl)amino]-2-methylpyrazole-3-carbonyl]benzonitrile]
< 10	CCN(CC(F)F)c1cc(C(=O)c2cc(C#N)ccc2-c2ncc(CN)cn2)n(C)n1 [compound 1074, 4-[5-(aminomethyl)pyrimidin-2-yl]-3-[5-[2,2-difluoroethyl(ethyl)amino]-2-methylpyrazole-3-carbonyl]benzonitrile]
< 10	CNc1cc(C(=O)c2cc(C#N)ccc2-c2ccc(CCN)cn2)n(C)n1 [compound 1075, 4-[5-(2-aminoethyl)pyridin-2-yl]-3-[2-methyl-5-(methylamino)pyrazole-3-carbonyl]benzonitrile]
< 10	Cc1nc(N2CCOCC2)sc1C(=O)c1cc(C#N)ccc1-c1ccc(CCN)cn1 [compound 1076, 4-[5-(2-aminoethyl)pyridin-2-yl]-3-(4-methyl-2-morpholin-4-yl-1,3-thiazole-5-carbonyl)benzonitrile]
< 10	N#Cc1ccc(-c2ccc(CCN)cn2)c(C(=O)c2sc(N3CCOCC3)nc2C(F)(F)F)c1 [compound 1077, 4-[5-(2-aminoethyl)pyridin-2-yl]-3-[2-morpholin-4-yl-4-(trifluoromethyl)-1,3-thiazole-5-carbonyl]benzonitrile]

IC50 [nM]	SMILES
< 10	N#Cc1ccc(-c2ncc(CCN)cn2)c(C(=O)c2sc(N3CCOCC3)nc2C(F)(F)F)c1 [compound 1078, 4-[5-(2-aminoethyl)pyrimidin-2-yl]-3-[2-morpholin-4-yl-4-(trifluoromethyl)-1,3-thiazole-5-carbonyl]benzonitrile]
< 10	N#Cc1ccc(-c2ccc(CCN)cc2)c(C(=O)c2cnnc(N3CCOCC3)c2)c1 [compound 1079, 4-[4-(2-aminoethyl)phenyl]-3-(6-morpholin-4-ylpyridazine-4-carbonyl)benzonitrile]
< 10	N#Cc1ccc(-c2ccc(CN)cn2)c(C(=O)c2sc(N3CCOCC3)nc2C(F)(F)F)c1 [compound 1080, 4-[5-(aminomethyl)pyridin-2-yl]-3-[2-morpholin-4-yl-4-(trifluoromethyl)-1,3-thiazole-5-carbonyl]benzonitrile]
10 to 1000	N#Cc1ccc(-c2ccc(CCN)cc2)c(C(=O)c2cnc(N3CCOCC3)o2)c1 [compound 1081, 4-[4-(2-aminoethyl)phenyl]-3-(2-morpholin-4-yl-1,3-oxazole-5-carbonyl)benzonitrile]
> 1000	N#Cc1ccc(-c2ncc(CN)cn2)c(C(=O)c2cnc(N3CCOCC3)o2)c1 [compound 1082, 4-[5-(aminomethyl)pyrimidin-2-yl]-3-(2-morpholin-4-yl-1,3-oxazole-5-carbonyl)benzonitrile]
10 to 1000	N#Cc1ccc(-c2ccc(CCN)cn2)c(C(=O)c2cnc(N3CCOCC3)o2)c1 [compound 1083, 4-[5-(2-aminoethyl)pyridin-2-yl]-3-(2-morpholin-4-yl-1,3-oxazole-5-carbonyl)benzonitrile]
10 to 1000	N#Cc1ccc(-c2ncc(CCN)cn2)c(C(=O)c2cnc(N3CCOCC3)o2)c1 [compound 1084, 4-[5-(2-aminoethyl)pyrimidin-2-yl]-3-(2-morpholin-4-yl-1,3-oxazole-5-carbonyl)benzonitrile]
10 to 1000	N#Cc1ccc(-c2ccc(CN)cn2)c(C(=O)c2cnc(N3CCOCC3)o2)c1 [compound 1085, 4-[5-(aminomethyl)pyridin-2-yl]-3-(2-morpholin-4-yl-1,3-oxazole-5-carbonyl)benzonitrile]
< 10	N#Cc1ccc(-c2ccc(CCN)cc2)c(C(=O)c2nnc(N3CCOCC3)o2)c1 [compound 1086, 4-[4-(2-aminoethyl)phenyl]-3-(5-morpholin-4-yl-1,3,4-oxadiazole-2-carbonyl)benzonitrile]
< 10	N#Cc1ccc(-c2ncc(CN)cn2)c(C(=O)c2sc(N3CCOCC3)nc2C(F)(F)F)c1 [compound 1087, 4-[5-(aminomethyl)pyrimidin-2-yl]-3-[2-morpholin-4-yl-4-(trifluoromethyl)-1,3-thiazole-5-carbonyl]benzonitrile]
10 to 1000	N#Cc1ccc(-c2ccc(CCN)cc2)c(C(=O)c2nnc(N3CCOCC3)s2)c1 [compound 1088, 4-[4-(2-aminoethyl)phenyl]-3-(5-morpholin-4-yl-1,3,4-thiadiazole-2-carbonyl)benzonitrile]
10 to 1000	N#Cc1ccc(-c2ccc(CN)cn2)c(C(=O)c2nnc(N3CCOCC3)o2)c1 [compound 1089, 4-[5-(aminomethyl)pyridin-2-yl]-3-(5-morpholin-4-yl-1,3,4-oxadiazole-2-carbonyl)benzonitrile]
> 1000	N#Cc1ccc(-c2ncc(CN)cn2)c(C(=O)c2nnc(N3CCOCC3)o2)c1 [compound 1090, 4-[5-(aminomethyl)pyrimidin-2-yl]-3-(5-morpholin-4-yl-1,3,4-oxadiazole-2-carbonyl)benzonitrile]
10 to 1000	N#Cc1ccc(-c2ccc(CCN)cn2)c(C(=O)c2nnc(N3CCOCC3)o2)c1 [compound 1091, 4-[5-(2-aminoethyl)pyridin-2-yl]-3-(5-morpholin-4-yl-1,3,4-oxadiazole-2-carbonyl)benzonitrile]
10 to 1000	N#Cc1ccc(-c2ncc(CCN)cn2)c(C(=O)c2nnc(N3CCOCC3)o2)c1 [compound 1092, 4-[5-(2-aminoethyl)pyrimidin-2-yl]-3-(5-morpholin-4-yl-1,3,4-oxadiazole-2-carbonyl)benzonitrile]
